System: MV-4-11 cells
Test: Gene expression microarray analysis (Affymetrix PrimeView) and GSEA
Format: cell-based, human
Design: RFU PODN (11730768_x_at) / Fold change /veh PODN (11730768_x_at) / RFU LINC00158 (11744669_a_at) / Fold change /veh LINC00158 (11744669_a_at) / RFU DUSP10 (11751237_a_at) / Fold change /veh DUSP10 (11751237_a_at) / RFU ID3 (11757404_x_at) / Fold change /veh ID3 (11757404_x_at) / RFU PLEKHG5 (11737974_s_at) / Fold change /veh PLEKHG5 (11737974_s_at) / RFU LRRC4B (11730491_at) / Fold change /veh LRRC4B (11730491_at) / RFU GIMAP4 (11747438_a_at) / Fold change /veh GIMAP4 (11747438_a_at) / RFU KRT8 (11758183_x_at) / Fold change /veh KRT8 (11758183_x_at) / RFU CNN1 (11734310_a_at) / Fold change /veh CNN1 (11734310_a_at) / RFU VPS37D (11726825_at) / Fold change /veh VPS37D (11726825_at) / RFU C10orf10 (11716522_x_at) / Fold change /veh C10orf10 (11716522_x_at) / RFU KIR2DL2 /// KIR2DL4 /// KIR2DL5A /// KIR2DL5B /// KIR2DS1 /// KIR2DS2 /// KIR2DS3 /// KIR2DS4 /// KIR3DL3 /// KIR3DL3 /// KIR3DS1 (11738374_at) / Fold change /veh KIR2DL2 /// KIR2DL4 /// KIR2DL5A /// KIR2DL5B /// KIR2DS1 /// KIR2DS2 /// KIR2DS3 /// KIR2DS4 /// KIR3DL3 /// KIR3DL3 /// KIR3DS1 (11738374_at) / RFU C1QL1 (11718748_at) / Fold change /veh C1QL1 (11718748_at) / RFU TMPRSS4 (11747572_a_at) / Fold change /veh TMPRSS4 (11747572_a_at) / RFU HAMP (11756126_x_at) / Fold change /veh HAMP (11756126_x_at) / RFU RNFT2 (11725882_a_at) / Fold change /veh RNFT2 (11725882_a_at) / RFU NR4A2 (11747474_a_at) / Fold change /veh NR4A2 (11747474_a_at) / RFU ABCC12 (11746883_a_at) / Fold change /veh ABCC12 (11746883_a_at) / RFU TMEM136 (11760407_x_at) / Fold change /veh TMEM136 (11760407_x_at) / RFU CLDN22 /// WWC2 (11732394_at) / Fold change /veh CLDN22 /// WWC2 (11732394_at) / RFU HLA-DPB1 (11760878_x_at) / Fold change /veh HLA-DPB1 (11760878_x_at) / RFU SPINT1 (11716480_a_at) / Fold change /veh SPINT1 (11716480_a_at) / RFU GAP43 (11754022_s_at) / Fold change /veh GAP43 (11754022_s_at) / RFU A4GNT (11735810_at) / Fold change /veh A4GNT (11735810_at) / RFU PRB3 (11715151_x_at) / Fold change /veh PRB3 (11715151_x_at) / RFU TUBB4B (11761932_at) / Fold change /veh TUBB4B (11761932_at) / RFU CAPN14 (11732068_a_at) / Fold change /veh CAPN14 (11732068_a_at) / RFU TMCC2 (11721928_a_at) / Fold change /veh TMCC2 (11721928_a_at) / RFU IRGQ (11745062_a_at) / Fold change /veh IRGQ (11745062_a_at) / RFU FAM174B (11720279_a_at) / Fold change /veh FAM174B (11720279_a_at) / RFU TMPRSS4 (11748680_a_at) / Fold change /veh TMPRSS4 (11748680_a_at) / RFU FAM212B (11763350_a_at) / Fold change /veh FAM212B (11763350_a_at) / RFU PLEKHG5 (11743358_a_at) / Fold change /veh PLEKHG5 (11743358_a_at) / RFU ZSCAN30 (11745921_a_at) / Fold change /veh ZSCAN30 (11745921_a_at) / RFU CMKLR1 (11741424_a_at) / Fold change /veh CMKLR1 (11741424_a_at) / RFU LOC101060620 /// MAPK8IP1 (11723275_at) / Fold change /veh LOC101060620 /// MAPK8IP1 (11723275_at) / RFU SPTSSB (11747773_x_at) / Fold change /veh SPTSSB (11747773_x_at) / RFU PRSS12 (11739890_at) / Fold change /veh PRSS12 (11739890_at) / RFU BIN1 (11741810_x_at) / Fold change /veh BIN1 (11741810_x_at) / RFU WNT11 (11732464_a_at) / Fold change /veh WNT11 (11732464_a_at) / RFU C10orf10 (11716521_a_at) / Fold change /veh C10orf10 (11716521_a_at) / RFU C5orf56 (11738089_at) / Fold change /veh C5orf56 (11738089_at) / RFU CYB561 (11721691_x_at) / Fold change /veh CYB561 (11721691_x_at) / RFU ANKRD19P (11752326_a_at) / Fold change /veh ANKRD19P (11752326_a_at) / RFU OR2T12 /// OR2T33 /// OR2T8 (11738714_s_at) / Fold change /veh OR2T12 /// OR2T33 /// OR2T8 (11738714_s_at) / RFU VCAN (11748164_a_at) / Fold change /veh VCAN (11748164_a_at) / RFU JSRP1 (11732532_at) / Fold change /veh JSRP1 (11732532_at) / RFU KRTAP10-11 (11738290_x_at) / Fold change /veh KRTAP10-11 (11738290_x_at) / RFU MYO3A (11730013_a_at) / Fold change /veh MYO3A (11730013_a_at) / RFU EBF3 (11725865_a_at) / Fold change /veh EBF3 (11725865_a_at) / RFU CAMK2N1 (11719241_x_at) / Fold change /veh CAMK2N1 (11719241_x_at) / RFU C5orf56 (11738088_a_at) / Fold change /veh C5orf56 (11738088_a_at) / RFU OLFML3 (11715873_a_at) / Fold change /veh OLFML3 (11715873_a_at) / RFU LOC100653217 /// NTM (11731650_a_at) / Fold change /veh LOC100653217 /// NTM (11731650_a_at) / RFU MAPK11 (11762145_a_at) / Fold change /veh MAPK11 (11762145_a_at) / RFU FIZ1 (11724087_x_at) / Fold change /veh FIZ1 (11724087_x_at) / RFU OASL (11726364_x_at) / Fold change /veh OASL (11726364_x_at) / RFU SOX15 (11748057_x_at) / Fold change /veh SOX15 (11748057_x_at) / RFU CD79A (11719716_a_at) / Fold change /veh CD79A (11719716_a_at) / RFU HIST1H1D (11736915_at) / Fold change /veh HIST1H1D (11736915_at) / RFU CASKIN2 (11723855_a_at) / Fold change /veh CASKIN2 (11723855_a_at) / RFU LOC730098 (11760151_x_at) / Fold change /veh LOC730098 (11760151_x_at) / RFU OR4N2 (11742367_at) / Fold change /veh OR4N2 (11742367_at) / RFU PRRT2 (11749266_a_at) / Fold change /veh PRRT2 (11749266_a_at) / RFU SNX32 (11753110_a_at) / Fold change /veh SNX32 (11753110_a_at) / RFU CDHR5 (11726645_a_at) / Fold change /veh CDHR5 (11726645_a_at) / RFU RCAN1 (11760418_a_at) / Fold change /veh RCAN1 (11760418_a_at) / RFU FAM167A (11723789_a_at) / Fold change /veh FAM167A (11723789_a_at) / RFU FAM26E (11764081_at) / Fold change /veh FAM26E (11764081_at) / RFU ISYNA1 (11749810_s_at) / Fold change /veh ISYNA1 (11749810_s_at) / RFU ACY1 (11761880_at) / Fold change /veh ACY1 (11761880_at) / RFU 11764098_at / Fold change /veh 11764098_at / RFU SAMD14 (11745864_x_at) / Fold change /veh SAMD14 (11745864_x_at) / RFU NPB (11741838_a_at) / Fold change /veh NPB (11741838_a_at) / RFU TMPRSS6 (11731388_a_at) / Fold change /veh TMPRSS6 (11731388_a_at) / RFU KRTAP10-2 (11738614_at) / Fold change /veh KRTAP10-2 (11738614_at) / RFU ARHGAP8 /// PRR5-ARHGAP8 (11727945_x_at) / Fold change /veh ARHGAP8 /// PRR5-ARHGAP8 (11727945_x_at) / RFU KRTAP5-7 /// NADSYN1 (11734609_at) / Fold change /veh KRTAP5-7 /// NADSYN1 (11734609_at) / RFU RASL12 (11751679_a_at) / Fold change /veh RASL12 (11751679_a_at) / RFU CDKN2B (11736163_a_at) / Fold change /veh CDKN2B (11736163_a_at) / RFU PRF1 (11729649_at) / Fold change /veh PRF1 (11729649_at) / RFU, ZNF638 /// ZNF638-IT1 / Fold change vs veh, ZNF638 /// ZNF638-IT1 / RFU, PANK3 / Fold change vs veh, PANK3 / RFU, SH3YL1 / Fold change vs veh, SH3YL1 / RFU, ZEB2 / Fold change vs veh, ZEB2 / RFU, NRIP1 / Fold change vs veh, NRIP1 / RFU, PTTG1IP / Fold change vs veh, PTTG1IP / RFU, CAPN2 / Fold change vs veh, CAPN2 / RFU, MED14 / Fold change vs veh, MED14 / RFU, SNORA58 / Fold change vs veh, SNORA58 / RFU, C1orf63 / Fold change vs veh, C1orf63 / RFU, LRRFIP1 / Fold change vs veh, LRRFIP1 / RFU, NDUFAF7 / Fold change vs veh, NDUFAF7 / RFU, SLC12A2 / Fold change vs veh, SLC12A2 / RFU, IBTK / Fold change vs veh, IBTK / RFU, ESF1 / Fold change vs veh, ESF1 / Fold change vs veh, TMEM50B / RFU, TAOK1 / Fold change vs veh, TAOK1 / RFU, ACBD3 / Fold change vs veh, ACBD3 / RFU, TMA16 / Fold change vs veh, TMA16 / RFU, RWDD3 / Fold change vs veh, RWDD3 / RFU, BCAT1 / Fold change vs veh, BCAT1 / RFU, EDEM3 / Fold change vs veh, EDEM3 / RFU, TMEM33 / Fold change vs veh, TMEM33 / RFU, WDR75 / Fold change vs veh, WDR75 / RFU, AHCTF1 / Fold change vs veh, AHCTF1 / RFU, TFRC / Fold change vs veh, TFRC / RFU, ZDHHC17 / Fold change vs veh, ZDHHC17 / RFU, NOM1 / Fold change vs veh, NOM1 / RFU, ARL8B / Fold change vs veh, ARL8B / RFU, ZBTB11 / Fold change vs veh, ZBTB11 / RFU, TAMM41 / Fold change vs veh, TAMM41 / RFU, KIAA1704 /// LOC100996395 / Fold change vs veh, KIAA1704 /// LOC100996395 / RFU, ING1 / Fold change vs veh, ING1 / RFU, TRMT61B / Fold change vs veh, TRMT61B / RFU, FUBP3 / Fold change vs veh, FUBP3 / RFU, TP53 / Fold change vs veh, TP53 / RFU, TNKS2 / Fold change vs veh, TNKS2 / RFU, ZFP14 / Fold change vs veh, ZFP14 / RFU, ACTR2 / Fold change vs veh, ACTR2 / RFU, PPP3R1 / Fold change vs veh, PPP3R1 / RFU, PIK3R1 / Fold change vs veh, PIK3R1 / RFU, HNRNPA1 / Fold change vs veh, HNRNPA1 / RFU, RNF170 / Fold change vs veh, RNF170 / RFU, ZNF28 / Fold change vs veh, ZNF28 / RFU, RNGTT / Fold change vs veh, RNGTT / RFU, OGT / Fold change vs veh, OGT / RFU, BRD1 / Fold change vs veh, BRD1 / RFU, MARS / Fold change vs veh, MARS / RFU, ZNF655 / Fold change vs veh, ZNF655 / RFU, FAHD1 / Fold change vs veh, FAHD1 / RFU, BDP1 / Fold change vs veh, BDP1 / RFU, LRRCC1 / Fold change vs veh, LRRCC1 / RFU, ARID1A / Fold change vs veh, ARID1A / RFU, ZNF146 / Fold change vs veh, ZNF146 / RFU, ZNF330 / Fold change vs veh, ZNF330 / RFU, GPN3 / Fold change vs veh, GPN3 / RFU, C9orf123 / Fold change vs veh, C9orf123 / RFU, N4BP2L2 / Fold change vs veh, N4BP2L2 / RFU, ARFIP1 / Fold change vs veh, ARFIP1 / RFU, FAM179B / Fold change vs veh, FAM179B / RFU, BCL10 / Fold change vs veh, BCL10 / RFU, UHRF1BP1L / Fold change vs veh, UHRF1BP1L / RFU, BET1 / Fold change vs veh, BET1 / RFU, CNOT2 / Fold change vs veh, CNOT2 / RFU, ZNF268 / Fold change vs veh, ZNF268 / Fold change vs veh, ZNF507 / RFU, DGCR2 / Fold change vs veh, DGCR2 / RFU, WDSUB1 / Fold change vs veh, WDSUB1 / Fold change vs veh, HSP90B1 /// MIR3652 / RFU, ADSS / Fold change vs veh, ADSS / RFU, GK / Fold change vs veh, GK / RFU, ZNF148 / Fold change vs veh, ZNF148 / RFU, TAF9 / Fold change vs veh, TAF9 / RFU, SLC1A5 / Fold change vs veh, SLC1A5 / RFU, SLMO2 / Fold change vs veh, SLMO2 / RFU, ABCC4 / Fold change vs veh, ABCC4 / RFU, LOC101060439 /// RAP1B / Fold change vs veh, LOC101060439 /// RAP1B / RFU, RFX7 / Fold change vs veh, RFX7 / RFU, GTPBP10 / Fold change vs veh, GTPBP10 / RFU, CNEP1R1 / Fold change vs veh, CNEP1R1 / RFU, BIVM-ERCC5 /// ERCC5 / Fold change vs veh, BIVM-ERCC5 /// ERCC5 / RFU, ILF3 / Fold change vs veh, ILF3 / RFU 11762660_at / Fold change /veh 11762660_at / RFU VCAN (11757783_s_at) / Fold change /veh VCAN (11757783_s_at) / RFU DDX43 (11728927_at) / Fold change /veh DDX43 (11728927_at) / RFU KRT8 (11758188_x_at) / Fold change /veh KRT8 (11758188_x_at) / RFU NKD1 (11759106_at) / Fold change /veh NKD1 (11759106_at) / RFU SRD5A1 (11742802_a_at) / Fold change /veh SRD5A1 (11742802_a_at) / RFU TPSAB1 /// TPSB2 (11721975_s_at) / Fold change /veh TPSAB1 /// TPSB2 (11721975_s_at) / RFU GSTM3 (11746129_a_at) / Fold change /veh GSTM3 (11746129_a_at) / RFU IL23R (11737362_x_at) / Fold change /veh IL23R (11737362_x_at) / RFU TMEM51 (11727254_a_at) / Fold change /veh TMEM51 (11727254_a_at) / RFU PIWIL2 (11732686_x_at) / Fold change /veh PIWIL2 (11732686_x_at) / RFU ORM1 (11744905_x_at) / Fold change /veh ORM1 (11744905_x_at) / RFU CCDC152 (11743942_at) / Fold change /veh CCDC152 (11743942_at) / RFU ECM1 (11717891_a_at) / Fold change /veh ECM1 (11717891_a_at) / RFU IL23R (11748794_a_at) / Fold change /veh IL23R (11748794_a_at) / RFU TNFAIP8L3 (11732012_x_at) / Fold change /veh TNFAIP8L3 (11732012_x_at) / RFU MBOAT4 (11741988_at) / Fold change /veh MBOAT4 (11741988_at) / RFU 11764193_at / Fold change /veh 11764193_at / RFU TMEM53 (11763286_at) / Fold change /veh TMEM53 (11763286_at) / RFU MAGEB2 (11727129_at) / Fold change /veh MAGEB2 (11727129_at) / RFU TMEM200A (11744735_a_at) / Fold change /veh TMEM200A (11744735_a_at) / RFU CCDC152 (11751479_a_at) / Fold change /veh CCDC152 (11751479_a_at) / RFU FAM211A (11726209_a_at) / Fold change /veh FAM211A (11726209_a_at) / RFU RGS16 (11746705_a_at) / Fold change /veh RGS16 (11746705_a_at) / RFU VCAN (11755009_s_at) / Fold change /veh VCAN (11755009_s_at) / RFU RHOB (11743442_s_at) / Fold change /veh RHOB (11743442_s_at) / RFU RGS16 (11720943_a_at) / Fold change /veh RGS16 (11720943_a_at) / RFU RGS16 (11720944_at) / Fold change /veh RGS16 (11720944_at) / RFU, VPS4B / Fold change vs veh, VPS4B / RFU, CREB1 / Fold change vs veh, CREB1 / RFU, DNAJC13 / Fold change vs veh, DNAJC13 / RFU, GNAQ / Fold change vs veh, GNAQ / RFU, CDK5R1 / Fold change vs veh, CDK5R1 / RFU, ZRANB3 / Fold change vs veh, ZRANB3 / RFU, CUL4A / Fold change vs veh, CUL4A / RFU, CCNY / Fold change vs veh, CCNY / RFU, UFL1 / Fold change vs veh, UFL1 / RFU, COG3 / Fold change vs veh, COG3 / RFU, DIAPH2 / Fold change vs veh, DIAPH2 / RFU, SKA2 / Fold change vs veh, SKA2 / RFU, AFF3 / Fold change vs veh, AFF3 / RFU, LMF1 / Fold change vs veh, LMF1 / RFU, IPO11 / Fold change vs veh, IPO11 / RFU, DFFB / Fold change vs veh, DFFB / RFU, FOXP1 / Fold change vs veh, FOXP1 / RFU, CARD8 / Fold change vs veh, CARD8 / RFU, STRN3 / Fold change vs veh, STRN3 / RFU, ADK / Fold change vs veh, ADK / RFU, RASSF2 / Fold change vs veh, RASSF2 / RFU, WIPF1 / Fold change vs veh, WIPF1 / RFU, LARP1B / Fold change vs veh, LARP1B / RFU, RASA1 / Fold change vs veh, RASA1 / RFU, RB1 / Fold change vs veh, RB1 / RFU, PPFIA1 / Fold change vs veh, PPFIA1 / RFU, MAT2A / Fold change vs veh, MAT2A / RFU, CCT5 / Fold change vs veh, CCT5 / RFU, WDR92 / Fold change vs veh, WDR92 / RFU, CUX1 / Fold change vs veh, CUX1 / RFU, TTC7A / Fold change vs veh, TTC7A / RFU, TMEM135 / Fold change vs veh, TMEM135 / RFU, DEPTOR / Fold change vs veh, DEPTOR / RFU, CPM / Fold change vs veh, CPM / RFU, DNAJB6 / Fold change vs veh, DNAJB6 / RFU, CACNA2D3 / Fold change vs veh, CACNA2D3 / RFU, DTX4 / Fold change vs veh, DTX4 / RFU, TFCP2 / Fold change vs veh, TFCP2 / RFU, GMCL1 /// GMCL1P1 / Fold change vs veh, GMCL1 /// GMCL1P1 / RFU, AEBP2 / Fold change vs veh, AEBP2 / RFU, SNHG1 /// SNORD22 /// SNORD25 /// SNORD26 /// SNORD27 /// SNORD28 /// SNORD29 /// SNORD31 / Fold change vs veh, SNHG1 /// SNORD22 /// SNORD25 /// SNORD26 /// SNORD27 /// SNORD28 /// SNORD29 /// SNORD31 / Fold change (Aza/veh), C12orf56 (ProbeSet 11735607_a_at) / Fold change (ACY-1035/veh), C12orf56 (ProbeSet 11735607_a_at) / Fold change (Aza/veh), FGFR1OP (ProbeSet 11751329_s_at) / Fold change (ACY-1035/veh), FGFR1OP (ProbeSet 11751329_s_at) / Fold change (Aza/veh), VPS36 (ProbeSet 11739960_a_at) / Fold change (ACY-1035/veh), VPS36 (ProbeSet 11739960_a_at) / RFU SYPL1 (11715823_x_at) / Fold change /veh SYPL1 (11715823_x_at) / RFU IGFBP7 (11715501_s_at) / Fold change /veh IGFBP7 (11715501_s_at) / RFU REEP3 (11722064_at) / Fold change /veh REEP3 (11722064_at) / RFU IGLL1 (11728026_x_at) / Fold change /veh IGLL1 (11728026_x_at): dose or concentration left out as unconfirmed
Details: MV-4-11 cells, 48 hours

Nc1ccc(-c2cccs2)cc1NC(=O)c1ccc2c(c1)cc(C1CC1)n2CCN1CCOCC1 [ACY-1035]
Fold change /veh ECM1 (11717891_a_at): 0.95
